Laboratory results published in US8545903B2 (priority 2009, dated 2013).
Where two headings read alike, the source gives them in different places.

Assays:
[1] = in vivo; cited from earlier work
[2] = biological target: neuraminidase (R&D SYSTEM, 4858-NM) of recombinant rvH1N1 influenza A virus of 1918 Spanish flu virus (A/Bervig_Mission/1/18) (Influenza A virus, UniProt Q9IGQ6); assay: biochemical; set-up: species or system influenza A virus A/Bervig_Mission/1/18 (rvH1N1)
in vitro [3] = conditions: dog, mdck
[4] = test system: influenza virus H9N2 (A/Chicken/Korea/MS96/96); assay: microbe, parasite or virus in culture; conditions: H9N2, MDCK, in Gallus gallus, read-out: EC50, 50% antiviral concentration
[5] = test system: influenza virus H9N2 (A/Chicken/Korea/MS96/96); assay: microbe, parasite or virus in culture; conditions: H9N2, MDCK, in Gallus gallus, read-out: EC50, 50% antiviral concentration; remark: listed apart in the source
[6] = biological target: neuraminidase of recombinant rvH1N1 influenza A virus (A/Bervig_Mission/1/18) (Influenza A virus, UniProt Q9IGQ6); assay: biochemical
in vitro [7] = conditions: dog
[8] = test system: influenza virus H9N2 (A/Chicken/Korea/MS96/96); assay: in vitro; conditions: dog
[9] = test system: influenza virus H9N2 (A/Chicken/Korea/MS96/96); assay: in vitro; conditions: dog; remark: listed apart in the source
[10] = test system: influenza virus H9N2 (A/Chicken/Korea/MS96/96); assay: microbe, parasite or virus in culture; conditions: H9N2, MDCK, in Gallus gallus, read-out: EC50, 50% antiviral concentration; remark: listed apart in the source
[11] = test system: influenza virus H9N2 (A/Chicken/Korea/MS96/96); assay: microbe, parasite or virus in culture; conditions: H9N2, MDCK, in Gallus gallus, read-out: EC50, 50% antiviral concentration; remark: listed apart in the source
[12] = in vivo; cited from earlier work; remark: listed apart in the source
[13] = test system: influenza virus H9N2 (A/Chicken/Korea/MS96/96); conditions: read-out: EC50, 50% antiviral concentration
[14] = test system: influenza virus H9N2 (A/Chicken/Korea/MS96/96); conditions: read-out: EC50, 50% antiviral concentration; remark: listed apart in the source
[15] = test system: Madin-Darby canine kidney (MDCK, ATCC CCL-34) cell
[16] = read-out: Neuraminidase inhibitory activity (IC50) A/Bervig-Mission/1/18 (rvH1N1)

Sequence of neuraminidase of recombinant rvH1N1 influenza A virus (A/Bervig_Mission/1/18) (Q9IGQ6 whole entry, looked up): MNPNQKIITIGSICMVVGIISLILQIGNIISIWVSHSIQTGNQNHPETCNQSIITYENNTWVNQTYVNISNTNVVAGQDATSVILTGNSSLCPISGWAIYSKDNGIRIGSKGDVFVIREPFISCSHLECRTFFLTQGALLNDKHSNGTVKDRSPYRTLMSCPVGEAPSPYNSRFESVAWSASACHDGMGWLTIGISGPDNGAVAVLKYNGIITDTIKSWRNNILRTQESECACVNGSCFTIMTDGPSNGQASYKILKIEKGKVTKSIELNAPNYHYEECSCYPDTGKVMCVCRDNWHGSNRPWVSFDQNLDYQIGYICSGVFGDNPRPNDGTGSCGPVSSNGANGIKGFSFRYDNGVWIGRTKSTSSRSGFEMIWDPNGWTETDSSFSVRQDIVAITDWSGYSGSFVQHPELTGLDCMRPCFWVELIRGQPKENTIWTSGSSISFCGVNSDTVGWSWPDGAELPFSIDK
Sequence of neuraminidase (R&D SYSTEM, 4858-NM) of recombinant rvH1N1 influenza A virus of 1918 Spanish flu virus (A/Bervig_Mission/1/18) (Q9IGQ6 36-469 limits assumed): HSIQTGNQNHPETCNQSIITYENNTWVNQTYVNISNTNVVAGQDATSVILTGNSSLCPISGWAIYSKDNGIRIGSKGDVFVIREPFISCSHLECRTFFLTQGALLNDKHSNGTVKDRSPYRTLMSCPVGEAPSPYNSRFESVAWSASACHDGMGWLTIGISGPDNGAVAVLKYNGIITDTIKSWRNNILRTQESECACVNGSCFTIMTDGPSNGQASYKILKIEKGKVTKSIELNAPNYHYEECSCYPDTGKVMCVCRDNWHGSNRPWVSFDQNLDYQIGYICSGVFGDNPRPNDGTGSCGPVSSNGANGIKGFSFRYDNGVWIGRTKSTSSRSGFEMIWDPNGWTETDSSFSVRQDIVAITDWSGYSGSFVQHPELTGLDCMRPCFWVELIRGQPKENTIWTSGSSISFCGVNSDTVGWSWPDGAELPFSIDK

For `NC12CC3CC(CC(C3)C1)C2` [Amatadine], the side effects [1] is listed as “severe side effects occur in the nervous system and stomach”.

Work on `O=C(/C=C(O)/C=C/c1ccc(O)cc1)/C=C/c1ccc(O)cc1` [Bisdemethoxycurcumin] yielded an IC50 [2] of 6 µM, a CC50 (in vitro [3]) of over 200 µM and an EC50 [4] of over 200 µM. The EC50 [5] was 182 µM.

`COc1cc(/C=C/C(=O)/C=C(O)/C=C/c2ccc(O)c(OC)c2)ccc1O` [Curcumin] gave an IC50 [6] of 3 µM and a CC50 (in vitro [7]) of 94.1 µM.

Molecule `COc1cc(/C=C/C(=O)/C=C(O)/C=C/c2ccc(O)cc2)ccc1O` [Demethoxycurcumin] has an IC50 [2] of 3 µM and a CC50 (in vitro [3]) of 97 µM.

In the case of `CCOC(=O)C1=C[C@@H](OC(CC)CC)[C@H](NC(C)=O)[C@@H](N)C1` [Oseltamivir], the side effects [1] is given as “severe vomiting”.

For `CC(N)C12CC3CC(CC(C3)C1)C2` (centres unmarked) [Rimatadine], the side effects [1] is listed as “severe side effects occur in the nervous system and stomach”.

Work on `CCOC(=O)C1=C[C@@H](OC(CC)CC)[C@H](NC(C)=O)[C@@H](N)C1` [Tamiflu, reference compound] yielded a selectivity ratio [8] of over 200, a selectivity ratio [9] of over 200 and a CC50 (in vitro [7]) of over 200 µM. For the same molecule, the EC50 [10] was under 1 µM and the EC50 [11] was under 1 µM.

For `CC(=O)N[C@H]1[C@H]([C@H](O)[C@H](O)CO)OC(C(=O)O)=C[C@@H]1N=C(N)N` [Zanamivir], the “release from the kidney” value [12] is given as “quick release from the kidney”.

With Bisdemethoxycurcumin the IC50 [6, 16] was 6 µM, the EC50 [13] was over 200 µM and the EC50 [14] was 182 µM. For the same molecule, the CC50 [15] was over 200 µM.

For Demethoxycurcumin, the IC50 [6, 16] was 3 µM and the CC50 [15] was 97 µM.
